According to ChEMBL document CHEMBL1201862, “PubChem BioAssay data set” (2004):
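Interpolation was linear, between the two tested concentrations surrounding the appropriate level; five concentrations were tested over 48 hours in 96-well plates. GI50 is the concentration that inhibits growth by half.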 The source made the active and inactive calls. Cut-off read from the data, not from the text of the source: active = GI50 up to about 1.1 µM and inactive = higher.

Experiments:
Experiment in all cases: DTP human tumour cell line panel, 48 h
[1] = test system: NCI-H226
[2] = test system: TK-10
[3] = test system: BT-549
[4] = test system: OVCAR-5
[5] = test system: MDA-MB-231
[6] = test system: HCT-116
[7] = test system: KM12
[8] = test system: K562
[9] = test system: IGROV-1
[10] = test system: COLO 205
[11] = test system: HOP-92
[12] = test system: SF-295
[13] = test system: M14
[14] = test system: A498
[15] = test system: 786-0
[16] = test system: SF-539
[17] = test system: CAKI-1
[18] = test system: SW-620
[19] = test system: HT-29
[20] = test system: HL-60
[21] = test system: SN12C
[22] = test system: SK-OV-3
[23] = test system: RPMI-8226
[24] = test system: SK-MEL-2
[25] = test system: SNB-75
[26] = test system: MDA-N
[27] = test system: SF-268
[28] = test system: Malme-3M
[29] = test system: UO-31
[30] = test system: LOX IMVI
[31] = test system: HCT-15
[32] = test system: NCI-H522
[33] = test system: T47D
[34] = test system: OVCAR-3
[35] = test system: NCI-H23
[36] = test system: OVCAR-4
[37] = test system: CCRF-CEM
[38] = test system: U-251
[39] = test system: ACHN
[40] = test system: MCF7
[41] = test system: Hs-578T
[42] = test system: MDA-MB-435
[43] = test system: OVCAR-8
[44] = test system: A549
[45] = test system: DU-145
[46] = test system: HOP-62
[47] = test system: EKVX
[48] = test system: MOLT-4
[49] = test system: UACC-257
[50] = test system: RXF 393
[51] = test system: NCI/ADR-RES
[52] = test system: SNB-19
[53] = test system: UACC-62
[54] = test system: SK-MEL-5

CC1=CC2(O)OC3(CC2=C(C)C)C(C)CCC13 (centres undefined)
GI50 [1]: > 100 µM (inactive) | GI50 [2]: > 100 µM (inactive) | GI50 [3]: > 100 µM (inactive) | GI50 [4]: > 100 µM (inactive) | GI50 [5]: > 100 µM (inactive) | GI50 [6]: > 100 µM (inactive) | GI50 [7]: > 100 µM (inactive) | GI50 [8]: > 100 µM (inactive) | GI50 [9]: > 100 µM (inactive) | GI50 [10]: > 100 µM (inactive) | GI50 [11]: > 100 µM (inactive) | GI50 [12]: > 100 µM (inactive) | GI50 [13]: > 100 µM (inactive) | GI50 [14]: > 100 µM (inactive) | GI50 [15]: > 100 µM (inactive) | GI50 [16]: > 100 µM (inactive) | GI50 [17]: > 100 µM (inactive) | GI50 [18]: > 100 µM (inactive) | GI50 [19]: > 100 µM (inactive) | GI50 [20]: > 100 µM (inactive) | GI50 [21]: > 100 µM (inactive) | GI50 [22]: > 100 µM (inactive) | GI50 [23]: > 100 µM (inactive) | GI50 [24]: > 100 µM (inactive) | GI50 [25]: 58.5 µM (inactive) | GI50 [26]: > 100 µM (inactive) | GI50 [27]: > 100 µM (inactive) | GI50 [28]: > 100 µM (inactive) | GI50 [29]: 44.4 µM (inactive) | GI50 [30]: > 100 µM (inactive) | GI50 [31]: > 100 µM | GI50 [32]: > 100 µM (inactive) | GI50 [33]: > 100 µM (inactive) | GI50 [34]: > 100 µM (inactive) | GI50 [35]: > 100 µM (inactive) | GI50 [36]: > 100 µM (inactive) | GI50 [37]: > 100 µM (inactive) | GI50 [38]: > 100 µM (inactive) | GI50 [39]: > 100 µM (inactive) | GI50 [40]: > 100 µM (inactive) | GI50 [41]: > 100 µM (inactive) | GI50 [42]: > 100 µM (inactive) | GI50 [43]: > 100 µM (inactive) | GI50 [44]: > 100 µM (inactive) | GI50 [45]: > 100 µM (inactive) | GI50 [46]: > 100 µM (inactive) | GI50 [47]: > 100 µM (inactive) | GI50 [48]: > 100 µM (inactive) | GI50 [49]: > 100 µM (inactive) | GI50 [50]: > 100 µM (inactive) | GI50 [51]: > 100 µM (inactive) | GI50 [52]: > 100 µM (inactive) | GI50 [53]: > 100 µM (inactive) | GI50 [54]: > 100 µM (inactive)
